Laboratory results as given in patent US9969973B2, “Methods and compositions for cell attachment and cultivation on planar substrates” (Janssen Biotech, Inc., priority 2008, dated 2018).

Assays:
[1] = system: human embryonic stem cell line H1; assay: Effect of porosity and Rho kinase inhibition on attachment of H1 cells (Membranes No. 10 and 11); assay type: cell-based
Experimental: Cells of the human embryonic stem cell line H1 at passage 42 were seeded onto the following planar substrates: Membrane No. 10 (pore size 0.4 μm); and Membrane No. 11 (pore size 3 μm). Cells were seeded at a density of 100,000 cells/cm^2, in MEF conditioned medium containing 20 ng/ml bFGF. The effect of Rho kinase inhibition on the attachment of the cells to the planar substrates was also examined. The cell culture medium was supplemented with 0.3 μM H-1152. After 24 hours, the culture medium was replaced with MEF conditioned medium containing 20 ng/ml bFGF, lacking H-1152. After another 24 hours culture, the cells on the membrane were fixed with 4% paraformaldehyde, rinsed with PBS, air dried, stained with crystal violet dye. Wells containing 1 μM H-1152 were included as a control. The number of cells was determined via light microscopy. Wells containing vehicle were included as a control.

[2] = system: human embryonic stem cell line H1; assay: Attachment of human embryonic stem cell line H1 to planar substrates of Table 1, with or without H-1152; assay type: cell-based
Experimental: Prior to testing, cells of the human embryonic stem cell line H1 cells were expanded on tissue culture plates coated with a 1:30 dilution of growth factor-reduced MATRIGEL®. Cells were seeded onto 100 mm culture dishes in 10 ml MEF conditioned media supplemented with 20 ng/ml bFGF (MEF-CM/bFGF). The cells were cultured at 37° C. in a humidified with a 5% CO2 atmosphere. The media was changed everyday with fresh MEF-CM/bFGF. Once the cells reached approximately 80% confluence, the cells were passaged by treatment with 1 mg/ml LIBERASE for 5 minutes at 37° C. The digestion was stopped by removing enzyme from the dish and rinsing the cells with MEF-CM/bFGF. The cells were collected by manual scraping in 10 ml MEF-CM/bFGF and transferred to a 50-ml conical tube. The cells were centrifuged at 200×g (1000 rpm) on a tabletop centrifuge to form a pellet. […]
Cells of the human embryonic stem cell line H1 were seeded onto the various planar substrates set forth in Table 1, at a density of 100,000 cells/cm^2. […] The effect of the Rho kinase inhibitor H-1152 on the attachment of the cells to the planar substrates was determined 3 μM H-1152 was added to the medium used to seed the cells. […] The cells were then stained with 1% hematoxylin, and the number of cells was determined via light microscopy. […]

[3] = system: human embryonic stem cell line H1; assay: Detachment of H1 cells from polycarbonate Membrane No. 9 after removal of H-1152; assay type: cell-based; settings: 3 μM for 24 hr, then 24 hours without
Experimental: Cells of the human embryonic stem cell line H1 were seeded on to a planar substrate comprising polycarbonate (Membrane No. 9) at a density of 100,000 cells/cm^2, in MEF conditioned medium containing 20 ng/ml bFGF and 3 μM of the Rho kinase inhibitor H-1152. The cells were cultured for 24 hr. After this time, the culture medium was replaced with MEF conditioned medium containing 20 ng/ml bFGF, lacking H-1152. After 24 hours, the cells on the membrane were fixed with 4% paraformaldehyde, rinsed with PBS, air dried, stained with crystal violet dye. The number of cells was determined via light microscopy. Wells containing H-1152 were included as a control.

[4] = system: human embryonic stem cell line H1; assay: Attachment of H1 cells to polycarbonate Membrane No. 7 with H-1152 concentration series; assay type: cell-based; settings: 24 hours
Experimental: In a separate experiment, the effect of the Rho kinase inhibitor H-1152 on the attachment of cells of the human embryonic stem cell line H1 to Membrane No. 7 was determined. The cells were seeded on a planar substrate comprising polycarbonate membranes (membrane No. 7) at a density of 150,000 cells/cm^2 in MEF-CM containing 20 ng/ml bFGF. The Rho Kinase inhibitor H-1152 was added to the culture medium at concentration of 0, 0.03, 0.1, 0.3, 1, and 3 μM. After 24 hours, the cells on the membrane were fixed with 4% paraformaldehyde, rinsed with PBS, air dried, stained with crystal violet dye. The number of cells was determined via light microscopy. Wells containing vehicle were included as a control.

[5] = system: human embryonic stem cell line H9; assay: Attachment of H9 cells to polycarbonate Membrane No. 7 with Y26732; assay type: cell-based; settings: 24 hours
Experimental: Cells of the human embryonic stem cell line H9 were seeded onto a planar substrate comprising polycarbonate (Membrane No. 7) at a density of 150,000 cells/cm^2 in MEF conditioned medium. The effect of Rho kinase inhibitor treatment on attachment was examined: The Rho Kinase inhibitor Y26732 was added to the culture medium at concentration of 0, 10, or 20 μM. After 24 hours, the cells on the membrane were fixed with 4% paraformaldehyde at room temperature, rinsed with PBS, air dried, stained with crystal violet dye. The number of cells was determined via light microscopy. Wells containing vehicle were included as a control.

[6] = system: dissociated human embryonic stem cells; settings: serum-free suspension culture; cited from earlier work
[7] = system: human embryonic stem cell line H9; assay: Attachment of H9 cells to mixed cellulose ester membrane No. 1 with Y26732; assay type: cell-based; settings: for Effect of Y26732 on attachment of H9 cells: 24 hours
Experimental: Cells of the human embryonic stem cell line H9 were cultured on MATRIGEL® coated dishes prior to experimental manipulation. Cells were seeded a mixed cellulose ester membrane (membrane No. 1) at a density of 150,000 cells/cm^2 in MEF conditioned medium. The planar substrate lacked an adlayer and a fibroblast feeder cell layer. The effect of the Rho Kinase inhibitor treatment on the attachment to the planar substrate was examined Cells were treated with 0, 10, or 20 μM Y26732. After 24 hours, the cells were fixed with 4% paraformaldehyde, rinsed with PBS, air dried, stained with crystal violet dye. The number of cells was determined via light microscopy. Wells containing vehicle were included as a control.

[8] = system: human embryonic stem cells; settings: cited from earlier work

| Compound | Need for H-1152 to maintain attachment of H1 cells ([1]; 1 μM, Membranes No. 10 and 11) | Effect of removal of H-1152 from the culture medium ([1]; Membrane No. 10 and Membrane No. 11) | Effect of H-1152 on attachment of H1 cells ([2]; 3 μM H-1152, membranes No. 2, 4 and 5) | Effect of removal of H-1152 from the culture medium on attached H1 cells ([2]; membranes No. 7 and No. 12) | Effect of removal of H-1152 from the culture medium [3] | Attachment of H1 cells with H-1152 ([4]; 0.03 μM) | Attachment of H1 cells with H-1152 ([4]; 0.1 μM) | Attachment of H1 cells with H-1152 ([4]; 0.3 μM) | Attachment of H1 cells with H-1152 ([4]; 1 μM) | Attachment of H1 cells with H-1152 ([4]; 3 μM) | Effect of Y26732 on attachment of H9 cells ([5]; 10 μM) | Effect of Y26732 on attachment of H9 cells ([5]; 20 μM) | apoptosis of dissociated human ES cells [6] | Effect of Y26732 on attachment of H9 cells ([7]; 10 μM) | Effect of Y26732 on attachment of H9 cells ([7]; 20 μM) | Effect of removal of Y26732 from the culture medium ([7]; removal for 24 hr) | attachment of human embryonic stem cells on surface modified plates [8] |
| --- | --- | --- | --- | --- | --- | --- | --- | --- | --- | --- | --- | --- | --- | --- | --- | --- | --- |
| Cc1cncc2cccc(S(=O)(=O)N3CCCNC[C@@H]3C)c12 [Membrane H-1152] | required to maintain the attachment | resulted in detachment of cells | enhanced | led to detachment of H1 cells | resulted in the detachment of cells | do not attach | do not attach | attachment was observed | attachment was observed | attachment was observed |  |  |  |  |  |  |  |
| C[C@@H](N)[C@H]1CC[C@H](C(=O)Nc2ccncc2)CC1 [Membrane Y26732] |  |  |  |  |  |  |  |  |  |  | resulted in the attachment | resulted in the attachment | protected from apoptosis | increased the attachment | increased the attachment | did not result in the detachment | enhance the attachment |
